pEC50: −log10 of the molar value. ≈ marks a conversion by molar mass, not a printed value.
Assays:
Human KCNQ2/3 channel = Human KCNQ2/3 channel (Homo sapiens (Human), UniProt O43525+O43526); test: Opening action with respect to KCNQ2/3 channel by depolarization stimulation (thallium influx, FLIPR); assay type: cell-based; settings: concentration giving 50% of maximum reaction of retigabine (10 μM); human KCNQ2/3 expression CHO-DHFR- cells; 5 mM potassium and 0.5 mM thallium; read-out: KCNQ2/3 ECrtg50
Description: Human KCNQ2/3 expression cells (CHO-DHFR-cells) were seeded in each well of 384 well plate (collagen-coated, black, clear bottom) at 0.5×10^4 cells/50 μL per well, and cultured in a MEM ALPHA medium (containing 10 vol % inactivated (56° C., 30 min) Fetal Bovine Serum and 100 IU/mL Penicillin—100 μg/mL Streptomycin—2 mM L-Glutamine) at 37° C. in 5% CO2 for 18 to 24 hours. The medium in the plate was removed. Then, incubation (room temperature, 60 minutes, light-shielded) was carried out in a loading buffer (prepared by the method described in the manual of FluxOR Thallium Detection Kit (Invitrogen, F10016, F10017)). KCNQ2/3 channel opening action (thallium influx into cells) by the depolarization stimulation (5 mM potassium and 0.5 mM thallium) was measured by FLIPR TETRA (Molecular Devices). The compound of the present invention had been treated five minutes before the depolarization stimulation, and the reaction induced by the depolarization stimulation was measured over time for 180 seconds. The channel opening action of the compound of the present invention was evaluated based on the change amount of the fluorescence intensity from the time before the depolarization stimulation to the time after the passage of 180 seconds. Thus, the concentration (ECrtg50) satisfying 50% of the fluorescence intensity change of maximum reaction (at the time of 10 μM-treatment) of retigabine under this experiment condition was calculated.

[1] = Solubility test (DMSO precipitation method, Pharmacopoeia of Japan elution test second solution); assay type: physicochemical; settings: Pharmacopoeia of Japan elution test second solution pH=6.8, room temperature, five hours, quantitation range 5 to 100 μM; for solubility at 5 h: aqueous buffer, kinetic from dmso stock
Description: A calibration curve solution was prepared by diluting a test substance (10 mM DMSO solution) with acetonitrile and adding acetonitrile including an internal standard substance (candesartan) so as to be 0.1, 0.4, and 2 μM.
Sample solution was prepared as follows: 5 μL of the compound of the present invention (10 mM DMSO solution) was added to 495 μL of the Pharmacopoeia of Japan elution test second solution (pH=6.8), and the resulting mixture was stirred at room temperature for five hours. Then, the solution was placed into a solubility filter plate and subjected to suction filtration. The filtrate (20 μL) was diluted with acetonitrile, followed by adding acetonitrile including an internal standard substance ([…]).
The calibration curve and sample solutions in the amount of 5 μL were infused into LC-MS/MS (Discovery Max manufactured by Thermo Scientific) and subjected to quantitation (quantitation range: 5 to 100 μM).

| pEC50 (Human KCNQ2/3 channel) | Solubility [1] [µM] | solubility at 5 h [1] [µM] | SMILES |
| --- | --- | --- | --- |
| < 5.00 |  |  | CC(O)(c1ccc(NC(=O)NCc2ccc(C(F)(F)F)cn2)cc1)C(F)(F)F (stereo not shown) [Comparative Example 1, 1-[4-(1,1,1-trifluoro-2-hydroxy-2-propanyl)phenyl]-3-{[5-(trifluoromethyl)-2-pyridinyl]methyl}urea, reference compound] |
|  | <5 | < 5 | O=C(Cc1ccc(F)cc1)Nc1c(Cl)cc(Cl)cc1Br [Comparative Example 2, N-(2-bromo-4,6-dichlorophenyl)-2-(4-fluorophenyl)acetamide, reference compound] |
| 6.30 |  |  | CC(O)(c1cc(Cl)c(NC(=O)NCc2cccc(N3CCCCC3)n2)c(Cl)c1)C(F)(F)F (stereo not shown) [Example 5 (3), 1-[2,6-dichloro-4-(1,1,1-trifluoro-2-hydroxy-2-propanyl)phenyl]-3-{[6-(1-piperidinyl)-2-pyridinyl]methyl}urea] |
| 8.52 |  | 79 (≈ 31.7 µg/mL) | CC(NC(=O)Nc1c(Cl)cc(C(C)(O)C(F)(F)F)cc1Cl)C(C)(C)C (stereo not shown) [Example 5 (4), 1-[2,6-dichloro-4-(1,1,1-trifluoro-2-hydroxy-2-propanyl)phenyl]-3-(3,3-dimethyl-2-butanyl)urea] |
| 6.52 |  | 93 (≈ 41.2 µg/mL) | CC1(C)CC(CNC(=O)Nc2c(Cl)cc(C(C)(O)C(F)(F)F)cc2Cl)CCO1 (stereo not shown) [Example 5 (5), 1-[2,6-dichloro-4-(1,1,1-trifluoro-2-hydroxy-2-propanyl)phenyl]-3-[(2,2-dimethyltetrahydro-2H-pyran-4-yl)methyl]urea] |
| 6.40 |  | 94 (≈ 43.7 µg/mL) | CC(O)(c1cc(Cl)c(NC(=O)NCC2(O)CCC(F)(F)CC2)c(Cl)c1)C(F)(F)F (stereo not shown) [Example 5 (6), 1-[2,6-dichloro-4-(1,1,1-trifluoro-2-hydroxy-2-propanyl)phenyl]-3-[(4,4-difluoro-1-hydroxycyclohexyl)methyl]urea] |
| 6.30 |  |  | Cc1cccnc1CNC(=O)Nc1c(Cl)cc(C(C)(O)C(F)(F)F)cc1Cl (stereo not shown) [Example 5 (7), 1-[2,6-dichloro-4-(1,1,1-trifluoro-2-hydroxy-2-propanyl)phenyl]-3-[(3-methyl-2-pyridinyl)methyl]urea] |
| 9.00 |  |  | CC(O)(c1cc(Cl)c(NC(=O)NCc2ccc(Cl)s2)c(Cl)c1)C(F)(F)F (stereo not shown) [Example 5 (8), 1-[(5-chloro-2-thienyl)methyl]-3-[2,6-dichloro-4-(1,1,1-trifluoro-2-hydroxy-2-propanyl)phenyl]urea] |
| 6.52 |  | 91 (≈ 43.3 µg/mL) | CC(O)(c1cc(Cl)c(NC(=O)NCc2ncccc2C(F)(F)F)c(Cl)c1)C(F)(F)F (stereo not shown) [Example 5 (9), 1-[2,6-dichloro-4-(1,1,1-trifluoro-2-hydroxy-2-propanyl)phenyl]-3-{[3-(trifluoromethyl)-2-pyridinyl]methyl}urea] |
| 9.52 |  |  | CC(O)(c1cc(Cl)c(NC(=O)NCC2CCCCC2)c(Cl)c1)C(F)(F)F (stereo not shown) [Example 5 (10), 1-(cyclohexylmethyl)-3-[2,6-dichloro-4-(1,1,1-trifluoro-2-hydroxy-2-propanyl)phenyl]urea] |
| 7.15 |  |  | CC(O)(c1cc(Cl)c(NC(=O)NCc2ccc(Br)cn2)c(Cl)c1)C(F)(F)F (stereo not shown) [Example 5 (11), 1-[(5-bromo-2-pyridinyl)methyl]-3-[2,6-dichloro-4-(1,1,1-trifluoro-2-hydroxy-2-propanyl)phenyl]urea] |
| 5.54 |  |  | CC(O)(c1cc(Cl)c(NC(=O)NCc2nccn2Cc2ccccc2)c(Cl)c1)C(F)(F)F (stereo not shown) [Example 5 (12), 1-[(1-benzyl-1H-imidazole-2-yl)methyl]-3-[2,6-dichloro-4-(1,1,1-trifluoro-2-hydroxy-2-propanyl)phenyl]urea] |
| 8.00 |  |  | CC(O)(c1cc(Cl)c(NC(=O)NCc2cc(-c3ccccc3)on2)c(Cl)c1)C(F)(F)F (stereo not shown) [Example 5 (16), 1-[2,6-dichloro-4-(1,1,1-trifluoro-2-hydroxy-2-propanyl)phenyl]-3-[(5-phenyl-1,2-oxazole-3-yl)methyl]urea] |
| 8.52 |  |  | CC(O)(c1cc(Cl)c(NC(=O)NCc2ccc(C(F)(F)F)o2)c(Cl)c1)C(F)(F)F (stereo not shown) [Example 5 (17), 1-[2,6-dichloro-4-(1,1,1-trifluoro-2-hydroxy-2-propanyl)phenyl]-3-{[5-(trifluoromethyl)-2-furyl]methyl}urea] |
| 7.15 |  |  | CC(C)[C@@H](C)NC(=O)Nc1c(Cl)cc(C(C)(O)C(F)(F)F)cc1Cl (stereo partly drawn) [Example 5 (21), 1-[2,6-dichloro-4-(1,1,1-trifluoro-2-hydroxy-2-propanyl)phenyl]-3-[(2R)-3-methyl-2-butanyl]urea] |
| 6.15 |  | 85 (≈ 37.3 µg/mL) | CC(O)(c1cc(Cl)c(NC(=O)NCc2nc(C3CC3)no2)c(Cl)c1)C(F)(F)F (stereo not shown) [Example 5 (22), 1-[(3-cyclopropyl-1,2,4-oxadiazole-5-yl)methyl]-3-[2,6-dichloro-4-(1,1,1-trifluoro-2-hydroxy-2-propanyl)phenyl]urea] |
| 8.00 |  | 69 (≈ 31.3 µg/mL) | CC(C)(C)c1cc(CNC(=O)Nc2c(Cl)cc(C(C)(O)C(F)(F)F)cc2Cl)no1 (stereo not shown) [Example 13, 1-[2,6-dichloro-4-(1,1,1-trifluoro-2-hydroxy-2-propanyl)phenyl]-3-{[5-(2-methyl-2-propanyl)-1,2-oxazole 3-yl]methyl}urea] |
| 6.40 |  | 89 (≈ 44.1 µg/mL) | CC(O)(c1cc(Cl)c(NC(=O)NCc2ncc(C(F)(F)F)cn2)c(Cl)c1F)C(F)(F)F (stereo not shown) [Example 43 (1), 1-[2,6-dichloro-3-fluoro-4-(1,1,1-trifluoro-2-hydroxy-2-propanyl)phenyl]-3-{[5-(trifluoromethyl)-2-pyrimidinyl]methyl}urea] |
| 6.22 |  |  | CC(O)(c1cc(F)c(NC(=O)NCc2ccc(C(F)(F)F)cn2)c(Cl)c1)C(F)(F)F (stereo not shown) [Example 49, 1-[2-chloro-6-fluoro-4-(1,1,1-trifluoro-2-hydroxy-2-propanyl)phenyl]-3-{[5-(trifluoromethyl)-2-pyridinyl]methyl}urea] |
| 7.52 |  | 41 (≈ 17.4 µg/mL) | CC(O)(c1cc(Cl)c(NC(=O)CCc2ccc(F)cc2)c(Cl)c1)C(F)(F)F (stereo not shown) [Example 50 (2), N-[2,6-dichloro-4-(1,1,1-trifluoro-2-hydroxy-2-propanyl)phenyl]-3-(4-fluorophenyl)propanamide] |
| 7.30 |  |  | CC(C)(C)CC(=O)Nc1c(Cl)cc(C(C)(O)C(F)(F)F)cc1Cl (stereo not shown) [Example 50 (4), N-[2,6-dichloro-4-(1,1,1-trifluoro-2-hydroxy-2-propanyl)phenyl]-3,3-dimethylbutane amide] |
| 7.22 |  |  | CC(O)(c1cc(Cl)c(NC(=O)CCc2cccc(C(F)(F)F)c2)c(Cl)c1)C(F)(F)F (stereo not shown) [Example 50 (6), N-[2,6-dichloro-4-(1,1,1-trifluoro-2-hydroxy-2-propanyl)phenyl]-3-[3-(trifluoromethyl)phenyl]propanamide] |
| 7.40 |  |  | CC(O)(c1cc(Cl)c(NC(=O)CCc2ccccc2C(F)(F)F)c(Cl)c1)C(F)(F)F (stereo not shown) [Example 50 (7), N-[2,6-dichloro-4-(1,1,1-trifluoro-2-hydroxy-2-propanyl)phenyl]-3-[2-(trifluoromethyl)phenyl]propanamide] |
| 7.22 |  | 71 (≈ 31.4 µg/mL) | Cc1cc(C(O)C(F)(F)F)cc(Cl)c1NC(=O)NCc1ccc(C(F)(F)F)cn1 (stereo not shown) [Example 62, 1-[2-chloro-6-methyl-4-(2,2,2-trifluoro-1-hydroxyethyl)phenyl]-3-{[5-(trifluoromethyl)-2-pyridinyl]methyl}urea] |
| 5.46 |  |  | CC(O)(CC(F)(F)F)c1cc(Cl)c(NC(=O)NCc2ccc(C(F)(F)F)cn2)c(Cl)c1 (stereo not shown) [Example 67, 1-[2,6-dichloro-4-(4,4,4-trifluoro-2-hydroxy-2-butanyl)phenyl]-3-{[5-(trifluoromethyl)-2-pyridinyl]methyl}urea] |
| 6.70 |  |  | COC(C)(c1cc(Cl)c(NC(=O)NCc2ccc(C(F)(F)F)cn2)c(Cl)c1)C(F)(F)F (stereo not shown) [Example 71, 1-[2,6-dichloro-4-(1,1,1-trifluoro-2-methoxy-2-propanyl)phenyl]-3-{[5-(trifluoromethyl)-2-pyridinyl]methyl}urea] |
| 6.52 |  |  | NC(c1cc(Cl)c(NC(=O)NCc2cnc(C(F)(F)F)s2)c(Cl)c1)C(F)(F)F (stereo not shown) [Example 79 (4), 1-[4-(1-amino-2,2,2-trifluoroethyl)-2,6-dichlorophenyl]-3-{[2-(trifluoromethyl)-1,3-thiazole-5-yl]methyl}urea] |
